From patent publication US20240158393A1, “PYRIDONE COMPOUNDS AND METHODS OF USE” (Exelixis, Inc., priority 2021, published 2024)

Columns and labels:
[1] = molecular target: T1, Human KDR (Homo sapiens, UniProt P35968); experiment: Human KDR kinase assay (33P radiometric / HTRF KinEase); format: biochemical; conditions: protocols of Examples B-1 and/or B-2
T1 construct: Human KDR (residues K790-V1356, 55 nM); purchased Eurofins Pharma Discovery Services UK Limited (KinaseProfiler, B-1) and/or CarnaBio (B-2)
Method in brief: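 Radiometric: KDR K790-V1356 (55 nM), MOPS pH 7.0, myelin basic protein, 10 μM [γ-33P]ATP, 40 min at room temperature, filter-bound 33P counted; nine half-log doses, top 1 μM. HTRF: KDR 790-1356, 1 μM biotinylated peptide, ATP at Km (4.0 μM), 40 min, 10 doses. IC50 from logistic fits.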

[2] = molecular target: T2, Human Axl (Homo sapiens, UniProt P30530); experiment: Human AXL kinase assay (33P radiometric / HTRF KinEase); format: biochemical; conditions: protocols of Examples A-1 and/or A-2
T2 construct: Human AXL (residues 464-885)
T2 sequence (P30530 1-894 Q764R): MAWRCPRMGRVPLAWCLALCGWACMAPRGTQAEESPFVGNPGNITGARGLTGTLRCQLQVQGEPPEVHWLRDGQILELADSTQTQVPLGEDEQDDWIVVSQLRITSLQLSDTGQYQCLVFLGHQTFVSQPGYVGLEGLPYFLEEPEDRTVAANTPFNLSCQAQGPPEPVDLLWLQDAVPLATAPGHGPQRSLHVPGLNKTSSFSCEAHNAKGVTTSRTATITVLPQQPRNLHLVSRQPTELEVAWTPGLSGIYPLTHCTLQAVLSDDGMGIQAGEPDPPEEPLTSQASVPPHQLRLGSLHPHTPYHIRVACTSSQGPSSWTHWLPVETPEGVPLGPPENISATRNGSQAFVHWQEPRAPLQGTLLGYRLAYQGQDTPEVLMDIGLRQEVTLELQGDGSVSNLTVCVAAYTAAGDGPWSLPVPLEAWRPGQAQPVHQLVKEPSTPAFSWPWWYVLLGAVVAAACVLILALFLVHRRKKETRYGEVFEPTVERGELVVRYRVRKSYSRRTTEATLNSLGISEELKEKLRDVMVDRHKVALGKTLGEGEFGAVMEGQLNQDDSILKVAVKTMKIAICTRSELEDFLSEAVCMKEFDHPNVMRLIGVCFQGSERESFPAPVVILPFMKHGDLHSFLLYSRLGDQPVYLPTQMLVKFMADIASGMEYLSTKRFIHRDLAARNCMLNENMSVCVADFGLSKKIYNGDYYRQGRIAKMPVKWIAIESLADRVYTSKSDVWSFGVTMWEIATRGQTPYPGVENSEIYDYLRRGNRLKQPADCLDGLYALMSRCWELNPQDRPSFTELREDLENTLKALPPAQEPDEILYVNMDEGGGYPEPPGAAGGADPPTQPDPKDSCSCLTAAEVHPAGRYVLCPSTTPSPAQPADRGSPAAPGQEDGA
Procedure: Kinase activity and compound inhibition were investigated using the ^33P-Phosphoryl transfer radiometric kinase assay, performed using the KinaseProfiler™ service of Eurofins Pharma Discovery Services UK Limited. Dose-response experiments were performed using nine compound concentrations in a 96-well microtiter plate. For each assay, all compounds were prepared to a 50× final assay concentration (50 μM) in 100% DMSO, then diluted in a half-log series, with the final top concentration at 1 μM. This working stock of the compound was added to the assay well as the first component in the reaction, followed by the remaining components as detailed in the following assay protocols below. The positive control wells (100% kinase activity) contain all components of the reaction including 2% DMSO (control for solvent effects), except the compound of interest. Blank wells contain all components of the reaction, with the reference inhibitor, staurosporine. This reference compound was used to abolish kinase activity and generated the 0% kinase activity base-line. IC50 values were calculated by nonlinear regression analysis using the sigmoidal dose-response (variable slope) curve fit on XLFit version 5.3 (ID Business Solutions).
Kinase activity and compound inhibition were also investigated using the HTRF® KinEase assay (Cisbio Cat #62TKOPEB) per manufacturer's instructions. In short, compounds were delivered in 300 nL volumes at 10 different concentrations in DMSO (3% final) to empty 384-well assay plates (Corning cat #3824). A mixture of enzyme, 1 μM biotinylated peptide substrate, and buffer in 10 μL volume was added. The assay was started upon the addition of ATP (at Km). The 10 μL reaction was incubated at room temperature. The reaction was stopped upon the addition of detection buffer containing streptavidin-XL665 (5 μL) and TK antibody-Eu3+(5 μL). After a 60 min incubation at room temperature, the fluorescence at 665 nm and 620 nm was read on an Envision microplate reader (Perkin Elmer).
Kinase activity normalized to DMSO (100% activity) and reference compound at 1 μM and (0% activity) was calculated using the fluorescence ratio […]. IC50 values were calculated by nonlinear regression analysis using a 4-parameter logistic curve fit in ActivityBase XE (IDBS).
Example A-1: Human Axl (residues H473-A894 with Q764R, 161 nM) was incubated with 8 mM MOPS pH 7.0, 0.2 mM EDTA, 250 μM KKSRGDYMTMQIG (SEQ ID NO:1), 10 mM magnesium acetate and 10 μM [γ-^33P-ATP]. The reaction was initiated by the addition of the Mg/ATP mix. After incubation for 40 minutes at room temperature, the reaction was stopped by the addition of phosphoric acid to a concentration of 0.5%. A reaction aliquot of 10 μL was then spotted onto a P30 filtermat and washed four times for 4 minutes in 0.425% phosphoric acid and once in methanol prior to drying and scintillation counting. Incorporated ^33P was measured using the Wallac Microbeta scintillation counter (Perkin Elmer).
Example A-2: Human AXL (residues 464-885; CarnaBio, 1 ng/well) was also incubated with enzymatic buffer (Cisbio) supplemented with 5 mM MgCl2, 1 mM DTT, and Supplemental Enzymatic Buffer (SEB; Cisbio). The mixture was added to the pre-plated compounds. The reaction was initiated upon addition of ATP at Km (1.0 μM). The reaction was incubated at room temperature for 50 min and stopped upon the addition of SA-XL665 and TK-antibody both diluted in EDTA-containing kinase detection buffer (Cisbio). The kinase activity was calculated as stated above and the IC50 values were reported.

T1 sequence (P35968 790-1356): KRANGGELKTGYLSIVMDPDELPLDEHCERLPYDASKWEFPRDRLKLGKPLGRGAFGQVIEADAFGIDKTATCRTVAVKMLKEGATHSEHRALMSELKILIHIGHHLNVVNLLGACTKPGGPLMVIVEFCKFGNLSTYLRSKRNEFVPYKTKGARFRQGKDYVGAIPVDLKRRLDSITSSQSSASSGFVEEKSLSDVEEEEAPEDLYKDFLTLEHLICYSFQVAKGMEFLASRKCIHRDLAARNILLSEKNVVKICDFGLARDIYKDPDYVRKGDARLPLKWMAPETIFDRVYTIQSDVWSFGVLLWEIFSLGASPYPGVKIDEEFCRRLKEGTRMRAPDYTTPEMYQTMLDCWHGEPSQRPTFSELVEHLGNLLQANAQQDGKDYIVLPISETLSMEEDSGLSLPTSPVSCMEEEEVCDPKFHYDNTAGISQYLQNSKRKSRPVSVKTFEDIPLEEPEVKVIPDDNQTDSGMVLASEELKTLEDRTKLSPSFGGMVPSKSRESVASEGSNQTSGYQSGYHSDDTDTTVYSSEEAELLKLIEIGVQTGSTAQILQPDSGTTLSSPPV

Row | Compound | IC50 [1] [nM] | IC50 [2] [nM]
1 | COc1cc2nccc(Oc3ccc(NC(=O)c4cn(CCF)c(C)c(C5=CCCC5)c4=O)cc3F)c2nc1OC [Compound 11, 5-(Cyclopenten-1-yl)-N-[4-[(6,7-dimethoxy-1,5-naphthyridin-4-yl)oxy]-3-fluorophenyl]-1-(2-fluoroethyl)-6-methyl-4-oxopyridine-3-carboxamide] | ≤ 100 | ≤ 100
2 | COc1cnc2c(Oc3ccc(NC(=O)c4cn(C)c(C)c(C5=CCOCC5)c4=O)cc3F)ccnc2c1 [Compound 12, 5-(3,6-Dihydro-2H-pyran-4-yl)-N-[3-fluoro-4-[(7-methoxy-1,5-naphthyridin-4-yl)oxy]phenyl]-1,6-dimethyl-4-oxopyridine-3-carboxamide] | > 300 | ≤ 100
3 | COc1cc2nccc(Oc3ccc(NC(=O)c4cn(CCF)c(C)c(C5CCCC5)c4=O)cc3F)c2nc1OC [Compound 13, 5-Cyclopentyl-N-[4-[(6,7-dimethoxy-1,5-naphthyridin-4-yl)oxy]-3-fluorophenyl]-1-(2-fluoroethyl)-6-methyl-4-oxopyridine-3-carboxamide] | ≤ 100 | ≤ 100
4 | COc1cc2nccc(Oc3ccc(NC(=O)c4c(C)cc(C)n(C5=CCCC5)c4=O)cc3F)c2nc1OC [Compound 14, 1-(Cyclopenten-1-yl)-N-[4-[(6,7-dimethoxy-1,5-naphthyridin-4-yl)oxy]-3-fluorophenyl]-4,6-dimethyl-2-oxopyridine-3-carboxamide] | ≤ 100 | ≤ 100
5 | COc1cc2nccc(Oc3ccc(NC(=O)c4c(C)cc(C)n(C5CCCC5)c4=O)cc3F)c2nc1OC [Compound 15, 1-Cyclopentyl-N-[4-[(6,7-dimethoxy-1,5-naphthyridin-4-yl)oxy]-3-fluorophenyl]-4,6-dimethyl-2-oxopyridine-3-carboxamide] | ≤ 100 | ≤ 100
6 | COc1cc2nccc(Oc3ccc(NC(=O)c4cnc(C)c(C5=CCCC5)c4O)cc3)c2cc1OC [Compound 16, 5-(Cyclopenten-1-yl)-N-[4-(6,7-dimethoxyquinolin-4-yl)oxyphenyl]-4-hydroxy-6-methylpyridine-3-carboxamide] | ≤ 100 | ≤ 100
7 | COc1cc2nccc(Oc3ccc(NC(=O)c4cnc(C)c(C5=CCOCC5)c4O)cc3)c2cc1OC [Compound 17, 5-(3,6-Dihydro-2H-pyran-4-yl)-N-[4-(6,7-dimethoxyquinolin-4-yl)oxyphenyl]-4-hydroxy-6-methylpyridine-3-carboxamide] | ≤ 100 | ≤ 100
8 | COc1cc2nccc(Oc3ccc(NC(=O)c4cnc(C)c(C5=CCCC5)c4O)cc3F)c2cc1OC [Compound 18, 5-(Cyclopenten-1-yl)-N-[4-(6,7-dimethoxyquinolin-4-yl)oxy-3-fluorophenyl]-4-hydroxy-6-methylpyridine-3-carboxamide] | ≤ 100 | ≤ 100
9 | COc1cc2nccc(Oc3ccc(NC(=O)c4cnc(C)c(C5=CCOCC5)c4O)cc3F)c2cc1OC [Compound 19, 5-(3,6-Dihydro-2H-pyran-4-yl)-N-[4-(6,7-dimethoxyquinolin-4-yl)oxy-3-fluorophenyl]-4-hydroxy-6-methylpyridine-3-carboxamide] | ≤ 100 | ≤ 100
10 | C=C(C)n1c(C)cc(C)c(C(=O)Nc2ccc(Oc3ccnc4cc(OC)c(OC)nc34)c(F)c2)c1=O [Compound 20, N-[4-[(6,7-Dimethoxy-1,5-naphthyridin-4-yl)oxy]-3-fluorophenyl]-4,6-dimethyl-2-oxo-1-prop-1-en-2-ylpyridine-3-carboxamide] | ≤ 100 | ≤ 100
11 | C=C(C)n1c(C)cc(C)c(C(=O)Nc2ccc(Oc3ccnc4cc(OC)cnc34)c(F)c2)c1=O [Compound 21, N-[3-Fluoro-4-[(7-methoxy-1,5-naphthyridin-4-yl)oxy]phenyl]-4,6-dimethyl-2-oxo-1-prop-1-en-2-ylpyridine-3-carboxamide] | 100 to 300 | > 300
12 | COc1cc2nccc(Oc3ccc(NC(=O)c4c(C)c(Br)c(C)n(C5CCCC5)c4=O)cc3F)c2nc1OC [Compound 22, 5-Bromo-1-cyclopentyl-N-[4-[(6,7-dimethoxy-1,5-naphthyridin-4-yl)oxy]-3-fluorophenyl]-4,6-dimethyl-2-oxopyridine-3-carboxamide] | 100 to 300 | ≤ 100
13 | COc1cc2nccc(Oc3ccc(NC(=O)c4cnc(C)c(C5=CCCCC5)c4O)cc3F)c2cc1OC [Compound 23, 5-(Cyclohexen-1-yl)-N-[4-(6,7-dimethoxyquinolin-4-yl)oxy-3-fluorophenyl]-4-hydroxy-6-methylpyridine-3-carboxamide] | ≤ 100 | ≤ 100
14 | COc1cc2nccc(Oc3ccc(NC(=O)c4cnc(C)c(C5=CCCCC5)c4O)cc3)c2cc1OC [Compound 24, 5-(Cyclohexen-1-yl)-N-[4-(6,7-dimethoxyquinolin-4-yl)oxyphenyl]-4-hydroxy-6-methylpyridine-3-carboxamide] | ≤ 100 | ≤ 100
15 | COc1cc2nccc(Oc3ccc(NC(=O)c4cnc(C)c(/C=C/C5CCCC5)c4O)cc3F)c2nc1OC [Compound 25, 5-[(E)-2-Cyclopentylethenyl]-N-[4-[(6,7-dimethoxy-1,5-naphthyridin-4-yl)oxy]-3-fluorophenyl]-4-hydroxy-6-methylpyridine-3-carboxamide] | ≤ 100 | ≤ 100
16 | COc1cc2nccc(Oc3ccc(NC(=O)c4cnc(C)c(/C=C/C5CC5)c4O)cc3F)c2nc1OC [Compound 26, 5-[(E)-2-Cyclopropylethenyl]-N-[4-[(6,7-dimethoxy-1,5-naphthyridin-4-yl)oxy]-3-fluorophenyl]-4-hydroxy-6-methylpyridine-3-carboxamide] | ≤ 100 | ≤ 100
17 | COc1cc2nccc(Oc3ccc(NC(=O)c4cnc(C)c(/C=C/C(C)(C)C)c4O)cc3F)c2nc1OC [Compound 27, N-[4-[(6,7-Dimethoxy-1,5-naphthyridin-4-yl)oxy]-3-fluorophenyl]-5-[(E)-3,3-dimethylbut-1-enyl]-4-hydroxy-6-methylpyridine-3-carboxamide] | ≤ 100 | ≤ 100
